The target in data set [1] is bovine skinned cardiac myofibrils (myosin) (Bos taurus (Bovine), UniProt Q9BE39). Kind of data set: Myosin inhibitory potency comparison: ATPase assay, cardiac myofibrils. Format: biochemical. The settings on record: pCa=6.25. On the procedure:
(§1) In our experiments, bovine skinned cardiac myofibrils were isolated from the frozen bovine left ventricle as myosin's source in the ATPase assay. The calcium concentration that achieves a 50% (pCa50 or pCa=6.25) activation of the myofibril system was chosen as the final condition for assessing the activation activity according to the literature (DOI: 10.1074/jbc.M117.776815). Myofibrils ATPase activity was measured in a buffered solution containing 12 mM PIPES (piperazine-N, N′-bis(2-ethane sulfonic acid) and 2 mM magnesium chloride at pH 6.8 (PM12 buffer). Final assay conditions were 1 mg/mL of bovine cardiac myofibrils, 1:20 of stock PK/LDH (Sigma-Aldrich, Cat No. P0294-5X5ML), 50 μM ATP, 1 mM DTT (dithiothreitol), 0.75 mM NADH, 1.5 mM PEP at pCa50 (pCa=6.25). Compounds were dissolved in DMSO (dimethyl sulfoxide). Serial dilution of compounds was created such that the final desired concentration of compound would be achieved in a volume of 150 μL with a fixed DMSO concentration of 2% (v/v). 75 μL of a solution containing bovine cardiac myofibrils, PK/LDH, and calcium were added to a 96 well plate for a 7 point dose-response. In some circumstances, 10 point-response was used to repeat the ATPase assays on compounds of interest. Compounds were added to the myofibrils solution and incubated for 5 minutes. The enzymatic reaction was started with the addition of 75 μL of a solution containing ATP, PEP, NADH, compounds, and calcium. The ATPase activity was measured by reading absorbance at 340 nm in a PerkinElmer Victor Nivo plate reader at 25° C. in kinetic mode for 15 minutes using clear bottom plates. The slopes of the absorbance changes as a function of time for the first 10 minutes were normalized to slopes on the control wells containing all reagents, including DMSO, but without compounds. This normalized rate was then plotted as a function of small molecule concentration in GraphPad prism 9. The data were fitted to a four-parameter fit, and IC50 was calculated using Graphpad Prism 9.
(§2) Bovine skinned cardiac myofibrils were isolated from the frozen bovine left ventricle, and rabbit skinned skeletal myofibrils were isolated from the frozen rabbit Psoas major and minor muscles as myosin's source in the ATPase assay. The calcium concentration that achieves a 50% activation of the myofibril system (pCa=6.25 for bovine cardiac myofibrils and pCa=6 for rabbit skeletal myofibrils) was chosen as the final condition for assessing the activation activity according to the literature (DOI:10.1074/jbc.M117.776815). Rest of ATPase assay conditions are the same as illustrated in experiment 1.

The subject of data set [2] is isolated rat ventricular myocytes. In words: Cardiomyocyte contractility assay (sarcomere shortening, IonOptix). Format: cell-based. The settings on record: for Ratio of % FS 5 uM/15 uM: 5 uM versus 15 uM. On the procedure:
The effects of compounds on sarcomere shortening in isolated rat ventricular myocytes were assessed using the IonOptix apparatus.
Myocytes were placed in a chamber mounted on the stage of an inverted microscope and continuously superfused with oxygenated Tyrode solution containing (in millimolar): 121 NaCl, 5 KCl, 2.8 NaCH3CO2, MgCl2·6H2O, Glucose, NaHCO3, Na2HPO4. 7H2O, and 1.5 mM CaCl2). Solution was preheated at 36±1° C. and electrical-field stimulated at 1 Hz by 2 platinum electrodes connected to a Myopacer field stimulator (IonOptix Corporation) with 4 ms square-wave bipolar pulses (10 V). Cells were illuminated by the microscope light. The cell image was collected by a x40 ultraviolet epifluorescence objective, diverted to the microscope side port, where the cell image was recorded by a charge coupled device (CCD) camera (MyoCam, IonOptix Corporation), converting optical brightness (pixels) into electrical signals (voltage). The MyoCam configuration allowed acquisition of up to 240 images per second (240 Hz frame rate). Contractile properties of the myocytes were analyzed in real time by a video detector and a personal computer-based data acquisition system (Ionwizard 6.0, IonOptix Corporation). Only myocytes with clear striations, quiescent prior to pacing with a resting sarcomere length greater or equal to 1.75 μm were used, since this is presumed to represent the lower limit for healthy cells.
Sarcomere shortening was monitored in control solution (predrug) until stable recordings were obtained (baseline period). To determine the response to compounds, myocytes were first superfused for 60 seconds with Tyrode's buffer followed by at least a 5 minute—(or until steady state was reached, up to 10 min) superfusion of compound. Each cell was subjected to 2 concentrations (5 and 15 uM or 5 and 10 uM) of test compounds. For some cells, a washout period was performed after the last concentration. Duration of the washout period was variable, resulting in variability in the washout data. In separate cells, a single concentration of isoproterenol (100 nM) was applied. Data were continuously recorded using the IonOptix software. Contractility data were analyzed using Ionwizard software (IonOptix). For each cell, 10-15 contractility transients at baseline and after treatment were averaged and compared.

The nature of data set [3]: Pharmacokinetic profiles in male SD rats (IV and PO). Particulars: IV 1 mg/kg, PO 5 mg/kg, route for this parameter not given; for clearance / half-life / Vd: rat, plasma; for Vd: read-out: VSS. Format: in vivo, rat. On the procedure: Pharmacokinetic profile of compounds were determined by IV (1 mg/Kg) and PO (5 mg/Kg) administrations in male SD rats. Compounds were administrated with free base and formulated in 5% DMAC+25% PEG-400+70%(30% 2-HP-β-CD in water). The compounds were dosed at 1 mg/kg for intravenous and 5 mg/kg oral administration. Blood samples were collected at 0, 0.083, 0.25, 0.5, 1, 2, 4, 8 and 24 hours post dose, serial bleeding for plasma for the IV group. Blood samples were collected at 0, 0.25, 0.5, 1, 2, 4, 6, 8 and 24 hours post dose, serial bleeding for the PO group. Approximately 150 μL whole blood/time point were collected in K2EDTA tube via jugular vein. Blood sample was put on ice and centrifuged at 2000 g for 5 min to obtain plasma sample within 15 minutes. PK parameters were estimated by non-compartmental model using WinNonlin 8.2.

Data set [4] deals with bovine cardiac myosin (Bos taurus (Bovine), UniProt Q9BE39). Kind of data set: Myosin inhibitory potency: PK/LDH-coupled ATPase assay on bovine skinned cardiac myofibrils. Particulars: pCa=6.25, 50 μM ATP, 25° C., read-out: myosin inhibition activity IC50. Format: biochemical. A digest of the protocol:
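Bovine left-ventricle skinned myofibrils (1 mg/mL) in PM12 buffer pH 6.8 at pCa 6.25, 50 μM ATP, PK/LDH-coupled NADH depletion read at 340 nm, 25 °C.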

Data set [5] concerns rabbit skinned skeletal myofibrils (myosin). In words: Myosin inhibitory potency comparison: ATPase assay, skeletal myofibrils. Format: biochemical. The settings on record: for Skeleta/Cardiac: ratio of skeletal IC50 to cardiac IC50. On the procedure:
as §1, §2

In data set [6] the test system is heart function (cardiac contractility). In words: Echocardiography assessment of acute pharmacodynamic effect in rat cardiac contractility. Format: in vivo. Particulars: Spraw-Dawley rats. The procedure: The Effect of Compounds on Heart Function was Determined by Echocardiography in Spraw-Dawley rats. Rats were under light anesthesia with 1-2% isoflurane. Compounds were dosed via oral gavage as single PO. Baseline heart functions were measured 1 day before dosing. The effect of compounds on heart function were measured at 1, 3, 6, and 24 hours post dosing. About 250 μL of whole blood was obtained at ˜1, 3, 6 and 24 hours post-dose via tail vein, immediately after the Echocardiography procedure. Blood was placed into a plasma separator tube containing K2 EDTA and kept on wet ice until processing. Blood samples were centrifuged at 2,000 g (4,400 rpm, Eppendorf 5417R) for 10 minutes at 4° C. Plasma samples were then transferred into micro-tubes and stored at −80° C. for future LC/MS analysis. The data were plotted as reduction of Fractional shortening vs plasma compound concentration. Therapeutic windows were determined as IC50/IC10 according to the literature (DOI: https://doi.org/10.1021/acs.jmedchem.1c01290).

Where [7] appears, read: rat ventricular myocytes, paced at 1 Hz.

Consider four compounds from US20240262804A1, “NITROGEN-CONTAINING HETEROCYCLIC KETONES, PREPARATION METHODS AND MEDICINAL USES THEREOF” (Hansoh Bio LLC, priority 2021, published 2024).

Marks after values point to notes of the source that are not given here.

Sequence of bovine cardiac myosin (Q9BE39 whole entry): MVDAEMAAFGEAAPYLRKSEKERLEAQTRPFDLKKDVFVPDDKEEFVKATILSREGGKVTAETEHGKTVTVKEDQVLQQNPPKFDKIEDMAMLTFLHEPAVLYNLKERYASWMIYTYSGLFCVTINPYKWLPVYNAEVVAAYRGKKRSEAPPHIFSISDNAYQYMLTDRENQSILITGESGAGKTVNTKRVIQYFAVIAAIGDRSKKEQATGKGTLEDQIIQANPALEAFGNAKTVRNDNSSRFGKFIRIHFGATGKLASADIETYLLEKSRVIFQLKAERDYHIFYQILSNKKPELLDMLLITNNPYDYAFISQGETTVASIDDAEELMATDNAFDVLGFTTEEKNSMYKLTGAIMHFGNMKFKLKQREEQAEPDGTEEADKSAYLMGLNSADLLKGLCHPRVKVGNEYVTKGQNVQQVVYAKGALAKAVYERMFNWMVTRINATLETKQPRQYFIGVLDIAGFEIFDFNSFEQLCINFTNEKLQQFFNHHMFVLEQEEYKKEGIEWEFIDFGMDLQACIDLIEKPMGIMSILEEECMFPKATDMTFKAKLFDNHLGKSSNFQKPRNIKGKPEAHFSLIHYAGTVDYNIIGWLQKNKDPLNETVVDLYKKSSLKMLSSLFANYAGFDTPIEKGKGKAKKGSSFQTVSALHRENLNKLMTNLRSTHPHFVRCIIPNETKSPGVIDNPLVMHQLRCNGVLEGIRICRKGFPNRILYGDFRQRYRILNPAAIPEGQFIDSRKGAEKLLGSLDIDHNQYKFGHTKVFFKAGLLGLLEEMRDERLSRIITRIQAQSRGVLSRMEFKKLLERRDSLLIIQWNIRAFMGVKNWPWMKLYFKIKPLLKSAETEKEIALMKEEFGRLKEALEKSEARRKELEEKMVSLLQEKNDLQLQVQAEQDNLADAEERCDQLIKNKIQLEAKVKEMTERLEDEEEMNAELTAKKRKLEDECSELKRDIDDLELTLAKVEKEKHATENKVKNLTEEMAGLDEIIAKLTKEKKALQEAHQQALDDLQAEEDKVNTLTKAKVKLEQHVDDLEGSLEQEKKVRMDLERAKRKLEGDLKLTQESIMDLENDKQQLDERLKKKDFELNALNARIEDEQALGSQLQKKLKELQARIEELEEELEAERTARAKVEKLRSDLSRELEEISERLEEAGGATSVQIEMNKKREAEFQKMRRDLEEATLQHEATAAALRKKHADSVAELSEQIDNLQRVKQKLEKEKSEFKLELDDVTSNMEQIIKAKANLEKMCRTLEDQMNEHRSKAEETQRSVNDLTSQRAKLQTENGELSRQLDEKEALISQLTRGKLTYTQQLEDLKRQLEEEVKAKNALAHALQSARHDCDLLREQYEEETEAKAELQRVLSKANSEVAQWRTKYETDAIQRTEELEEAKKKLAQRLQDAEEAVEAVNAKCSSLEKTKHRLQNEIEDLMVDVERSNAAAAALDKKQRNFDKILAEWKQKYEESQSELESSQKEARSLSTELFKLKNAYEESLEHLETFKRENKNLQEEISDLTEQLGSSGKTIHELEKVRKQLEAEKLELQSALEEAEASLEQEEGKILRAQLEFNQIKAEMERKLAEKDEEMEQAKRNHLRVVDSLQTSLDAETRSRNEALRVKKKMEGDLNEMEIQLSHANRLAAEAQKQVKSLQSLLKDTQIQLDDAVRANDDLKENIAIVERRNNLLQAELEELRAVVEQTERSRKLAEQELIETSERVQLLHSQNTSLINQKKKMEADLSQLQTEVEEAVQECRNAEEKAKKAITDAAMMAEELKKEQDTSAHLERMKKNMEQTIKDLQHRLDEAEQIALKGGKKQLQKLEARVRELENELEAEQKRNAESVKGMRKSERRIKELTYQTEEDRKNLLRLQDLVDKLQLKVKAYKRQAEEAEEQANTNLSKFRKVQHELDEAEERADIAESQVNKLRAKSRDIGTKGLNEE
Sequence of bovine cardiac myosin (P85100 whole entry partner): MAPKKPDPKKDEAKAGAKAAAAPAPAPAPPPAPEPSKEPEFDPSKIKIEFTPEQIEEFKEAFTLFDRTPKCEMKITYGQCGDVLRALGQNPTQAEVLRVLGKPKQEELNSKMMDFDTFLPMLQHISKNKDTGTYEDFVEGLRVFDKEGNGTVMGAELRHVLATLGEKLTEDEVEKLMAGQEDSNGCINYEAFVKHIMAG
Sequence of bovine cardiac myosin (Q3SZE5 whole entry partner): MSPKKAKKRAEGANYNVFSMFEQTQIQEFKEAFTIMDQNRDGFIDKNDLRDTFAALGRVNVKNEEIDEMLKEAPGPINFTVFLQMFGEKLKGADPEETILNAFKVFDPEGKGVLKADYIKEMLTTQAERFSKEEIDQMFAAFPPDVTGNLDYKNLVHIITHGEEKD
Sequence of bovine skinned cardiac myofibrils (myosin) (Q9BE39 whole entry): as the sequence (Q9BE39 whole entry) above
Sequence of bovine skinned cardiac myofibrils (myosin) (P85100 whole entry partner): as the sequence (P85100 whole entry partner) above
Sequence of bovine skinned cardiac myofibrils (myosin) (Q3SZE5 whole entry partner): as the sequence (Q3SZE5 whole entry partner) above

As for `Cc1cccc([C@H](C)Nc2nc(=O)n(C3CCOCC3)c(=O)[nH]2)c1` [Example 4], in data set [1], the IC50 (usually the concentration that inhibits the measured activity by half) was determined as 660 nM. For the same compound, the “Ratio of % FS 5 uM/10 uM” value in data set [2] (5 uM versus 10 uM (cell marked *)) is 1.7*. The “% FS (% reduction from baseline) at 5 uM” value in data set [2] (setting [7]) is given as 71.2 +/− 7.6%. Moreover, the “% FS (% reduction from baseline) at 10 uM” value in data set [2] (10 uM (cell marked *), rat ventricular myocytes, paced at 1 Hz) is on record as 42.4 +/− 4.2* %. Also, in data set [3], the DNAUC came out at 2299.6 ng·h/mL; the clearance is 5.5 mL/min/kg; the half-life (as a rule, the time in which the quantity being followed falls by half) was 3.35 h; the Vd stood at 1.17 L/kg.
As to `C[C@H](Nc1nc(=O)n(C2CCOCC2)c(=O)[nH]1)c1ccc(F)cc1F` [Example 10], in data set [4], the IC50 is 1840 nM. In addition, in data set [1], the IC50 is 1500 nM. Besides, in data set [5], the “cardiac-skeletal myosin selectivity (in words)” value is recorded as “better cardiac-skeletal myosin selectivity” and the Skeleta/Cardiac is 29.01. Also, the “potency in inhibiting fast skeletal myofibril activity (in words)” value in data set [5] (compared with cardiac myofibrils) is reported as “way less potent”. In addition, the “Ratio of % FS 5 uM/15 uM” value in data set [2] came to 1.2. Also, in data set [2] (setting [7]), the “% FS (% reduction from baseline) at 5 uM” value was 51 +/− 6% and the “% FS (% reduction from baseline) at 15uM” value is listed as 41.5 +/− 6.3%. In addition, in data set [3], the DNAUC is 1724.7 ng·h/mL, the clearance was 9.17 mL/min/kg, the half-life is 4.51 h and the Vd is 1.78 L/kg. The “effect on heart contractility at 20 mpk (FIG. 2)” value in data set [6] (single PO, 20 mpk) was “do not further inhibit heart contractility at 20 mpk”. In addition, the “effect on heart contractility, dose dependence (FIG. 2)” value in data set [6] (single PO, up to 10 mpk) is “dose dependent under 10 mpk”. In data set [6] (therapeutic window as IC50/IC10), the “therapeutic window, plasma exposure vs fractional shortening (in words)” value was “superior therapeutic windows”.
For `CC(C)n1c(=O)nc(N[C@@H](C)C2CCCCC2)[nH]c1=O` [Example 45], the IC50 in data set [4] was found to be 2800 nM; in data set [1], 7580 nM. For the same compound, the Skeleta/Cardiac in data set [5] turned out to be 5.36.
Take `C[C@H](Nc1nc(=O)n(C2CCOCC2)c(=O)[nH]1)c1ccc(OC(F)(F)F)cc1` [Example 152]: the values for the IC50 in data set [4] and in data set [1] were 1210 nM and 1790 nM, respectively. Further, in data set [5], the Skeleta/Cardiac came to 2.39. In data set [2], the “Ratio of % FS 5 uM/15 uM” value was found to be 2.4. For the same compound, in data set [2] (setting [7]), the “% FS (% reduction from baseline) at 5 uM” value was 62.9 +/− 6.2%. Moreover, the “% FS (% reduction from baseline) at 15uM” value in data set [2] (setting [7]) is given as 26.7 +/− 6.4%.
